Measured values reported in US20260226105A1, “Antimicrobial And Antibiofilm Peptides Sequences With Metal-Binding Motifs” (The Trustee of the University of Pennsylvania, priority 2021, published 2026).
“And” between values parts separate entries of the source, which are not always exact repeats. Identical values can stand only once. Like-named read-outs stand apart in the source and are kept apart here. Ends that are not written are not given here.

Legend:
E. coli KpC+1812446 = format: in vivo, mice; details: for in vivo toxicity: infected Balb/C mice, 5 and 10 mg·Kg^−1
Procedure: Male Balb/C (18-20 g) mice from the Biotério Central do Campus da USP in Ribeirão Preto, São Paulo, were kept in groups of 5 per cage at 22° C. with normal cycles of light and free access to food and water. The care and use of the animals were approved by the Ethics Committee of Universidade Católica Dom Bosco number 019/2016. We assessed the ability of the peptides to protect the mice from lethal systemic infections induced with E. coli KpC+1812446. The mice (n=40) were randomly placed into eight groups of five mice each, and each mouse was injected intraperitoneally with 200 μL of saline solution containing 2×10^7 CFU of E. coli KpC+1812446. Intraperitoneal treatment with 5 or 10 mg·Kg^−1 of each peptide was initiated after one hour of infection and repeated at 24 h intervals for seven days^61. Gentamicin at 10 mg·Kg^−1 of body weight and normal saline were used as positive and negative controls, respectively.

E. coli (ATCC 25922) [1] = details: for MIC in Cu(II) supplemented medium: Cu(II) supplemented medium (0.25 μM); for MIC: MH broth, 12 h, 37° C.
E. coli (KpC+ 1812446) = details: MH broth, 12 h, 37° C.
E. coli (KpC+ 2101123) = details: for MIC in Cu(II) supplemented medium: Cu(II) supplemented medium (0.25 μM); for MIC: MH broth, 12 h, 37° C.
[2] = system: K. pneumoniae (KpC+ 1825971); details: for MIC in Cu(II) supplemented medium: Cu(II) supplemented medium (0.25 μM); for MIC: MH broth, 12 h, 37° C.
[3] = system: K. pneumoniae (ATCC 13883); details: MH broth, 12 h, 37° C.
[4] = system: P. aeruginosa (ATCC 27853); details: MH broth, 12 h, 37° C.
MRSA (3730529) = details: MH broth, 12 h, 37° C.
S. aureus (ATCC 25923) = details: for MIC in Cu(II) supplemented medium: Cu(II) supplemented medium (0.25 μM); for MIC: MH broth, 12 h, 37° C.
E. coli MG1655 = details: for MIC, TETA: cell-impermeable Cu(II) chelator triethylenetetramine (TETA) 200 μM; for MIC, TTM: cell-permeable Cu(II) chelator tetrathiolmolybdate (TTM) 200 μM
E. coli (KpC1812446) [5] = details: Table 3, agent alone
E. coli (ATCC25922) = details: Table 3, agent alone
[6] = system: K. pneumoniae (ATCC13883); details: Table 3, agent alone
[7] = system: K. pneumoniae (KpC1825971); details: Table 3, agent alone
E. coli (KpC1812446) [8] = details: agent alone, BM2 minimal medium
E. coli (ATCC 25922) [9] = details: agent alone, BM2 minimal medium
[10] = system: K. pneumoniae (ATCC13883); details: agent alone, BM2 minimal medium
[11] = system: K. pneumoniae (KpC1825971); details: agent alone, BM2 minimal medium
[12] = system: E. coli (KpC+1812446) planktonic cells; details: Planktonic
[13] = system: E. coli (KpC+1812446) biofilm; details: Biofilm

Sequence | in vivo toxicity (E. coli KpC+1812446) | MIC in Cu(II) supplemented medium (E. coli (ATCC 25922) [1]) [µM] | MIC (E. coli (ATCC 25922) [1]) [µM] | MIC (E. coli (KpC+ 1812446)) [µM] | MIC in Cu(II) supplemented medium (E. coli (KpC+ 2101123)) [µM] | MIC (E. coli (KpC+ 2101123)) [µM] | MIC in Cu(II) supplemented medium [2] [µM] | MIC [2] [µM] | MIC [3] [µM] | MIC [4] [µM] | MIC (MRSA (3730529)) [µM] | MIC in Cu(II) supplemented medium (S. aureus (ATCC 25923)) [µM] | MIC (S. aureus (ATCC 25923)) [µM] | MIC, TETA (E. coli MG1655) [µM] | MIC, TTM (E. coli MG1655) [µM] | MIC, No Chelator (E. coli MG1655) [µM] | MIC (E. coli (KpC1812446) [5]) [µM] | MIC (E. coli (ATCC25922)) [µM] | MIC [6] [µM] | MIC [7] [µM] | other results
GGHKWKLFKKIGAVLKVL [GGH-CM15] | did not decrease the toxicity of CM15 | 2 | 2 | 2 | 2 | 2 | 2 | 2 | 1 | 1 | 2 | 1 | 1 | 2 | 32 | 1 | 8 | 4 | >32 | 8 | mouse deaths (E. coli KpC+1812446; 5 and 10 mg·Kg^−1 intraperitoneal): all the mice died on the first day; MBIC (E. coli (KpC1812446) [8]): 4 µM; MBIC (E. coli (ATCC 25922) [9]): 4 µM; MBIC [10]: >32 µM; MBIC [11]: 4 µM; FICI ([12]; peptide + AmP): 1.52 and 1.5; FICI ([12]; peptide + CHL): 0.5 and 0.5008; FICI ([12]; peptide + MER): 0.52; FICI ([12]; peptide + STR): 1.5; FICI ([12]; peptide + TRI): 0.5; FICI ([13]; peptide + AmP): 2.0; FICI ([13]; peptide + CHL): 2.0; FICI ([13]; peptide + MER): 0.27; FICI ([13]; peptide + STR): 0.78 and 0.75; FICI ([13]; peptide + TRI): 1.5
VIHKWKLFKKIGAVLKVL [VIH-CM15] | decreased the toxicity of CM15 | 1 | 1 | 4 | 2 | 2 | 1 | 1 | 1 | 4 | 2 | 1 | 1 | 1 | 32 | 0.5 | 4 | 4 | 30 | 8 | MBIC (E. coli (KpC1812446) [8]): 8 µM; MBIC (E. coli (ATCC 25922) [9]): 4 µM; MBIC [10]: >30 µM; MBIC [11]: 4 µM; FICI ([12]; peptide + AmP): 2.0; FICI ([12]; peptide + CHL): 1.0 and 1.002; FICI ([12]; peptide + MER): 1.0; FICI ([12]; peptide + STR): 1.29; FICI ([12]; peptide + TRI): 1.0; FICI ([13]; peptide + AmP): 1.5; FICI ([13]; peptide + CHL): 1.38; FICI ([13]; peptide + MER): 0.185 and 0.19; FICI ([13]; peptide + STR): 1.0; FICI ([13]; peptide + TRI): 1.0
